Data published in patent US4879114A, “Lipids from omentum and methods for cosmetic use” (Angio-Medical Corporation, priority 1985, dated 1989).

System: skin (back) of subjects
Conditions: in vivo

induction phase patch reading: negative at each reading
Substance: petrolatum
challenge patch reading: dermal contact irritation or sensitization: negative at each reading without any evidence of dermal contact irritation or sensitization
